From US20250381243A1, “HETEROCYCLES AND USES THEREOF” (Kumquat Biosciences Inc., priority 2022, published 2025)
Where two headings read alike, the source gives them in different places.

Tested on: A549 cells
Test: Cell proliferation assay (CellTiter-Glo), cells with K-Ras G12S mutation
Assay type: cell-based
Conditions: Homo sapiens, read-out: Inhibition of A549 Cells (IC50)
In short: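 A549 (K-Ras G12S) cells in RPMI-1640 with 10% heat-inactivated FBS, plated in standard or ultra-low-attachment 384-well format, treated next day with a dilution series (e.g., 10-point, 3-fold). Viability read by CellTiter-Glo luminescence about 6 days later; IC50 from four-parameter fit.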

SMILES | IC50 (≤500 nM) | IC50 (500 nM to 5 μM (mixed units))
CN(C[C@@H]1CN(C(=O)n2cnc(F)n2)[C@@H]1C1(CF)CC1)c1nc(OC[C@@]23CCCN2C[C@H](F)C3)nc2c(F)c(-c3ccc(F)c4sc(N)c(C#N)c34)c(Cl)cc12 [Compound 148, 2-amino-4-(6-chloro-8-fluoro-4-((((2S,3R)-1-(3-fluoro-1H-1,2,4-triazole-1-carbonyl)-2-(1-(fluoromethyl)cyclopropyl)azetidin-3-yl)methyl)(methyl)amino)-2-(((2R,7aS)-2-fluorotetrahydro-1H-pyrrolizin-7a(5H)-yl)methoxy)quinazolin-7-yl)-7-fluorobenzo[b]thiophene-3-carbonitrile] | ≤ 500 nM | 
N#Cc1c(N)sc2c(F)ccc(-c3c(Cl)cc4c(N5CCC[C@@]6(C5)CN(C(=O)n5cnc(Cl)n5)[C@@H]6C5CCC5)nc(OC[C@@]56CCCN5C[C@H](F)C6)nc4c3F)c12 [Compound 133, 2-amino-4-(6-chloro-4-((1R,4R)-2-(3-chloro-1H-1,2,4-triazole-1-carbonyl)-1-cyclobutyl-2,6-diazaspiro[3.5]nonan-6-yl)-8-fluoro-2-(((2R,7aS)-2-fluorotetrahydro-1H-pyrrolizin-7a(5H)-yl)methoxy)quinazolin-7-yl)-7-fluorobenzo[b]thiophene-3-carbonitrile] | ≤ 500 nM | 
CN(C[C@@H]1CN(C(=O)n2cnc(F)n2)[C@@H]1C1(CC#N)CC1)c1nc(OC[C@@]23CCCN2C[C@H](F)C3)nc2c(F)c(-c3ccc(F)c4sc(N)c(C#N)c34)c(Cl)cc12 [Compound 108, 2-amino-4-(6-chloro-4-((((2S,3R)-2-(1-(cyanomethyl)cyclopropyl)-1-(3-fluoro-1H-1,2,4-triazole-1-carbonyl)azetidin-3-yl)methyl)(methyl)amino)-8-fluoro-2-(((2R,7aS)-2-fluorotetrahydro-1H-pyrrolizin-7a(5H)-yl)methoxy)quinazolin-7-yl)-7-fluorobenzo[b]thiophene-3-carbonitrile] | ≤ 500 nM | 
N#Cc1c(N)sc2c(F)ccc(-c3c(Cl)cc4c(N5CCC(N(C(=O)n6cncn6)C6CC6)C5)nc(OC[C@@]56CCCN5C[C@H](F)C6)nc4c3F)c12 (stereo partly drawn) [Compound 135, N-(1-(7-(2-amino-3-cyano-7-fluorobenzo[b]thiophen-4-yl)-6-chloro-8-fluoro-2-(((2R,7aS)-2-fluorotetrahydro-1H-pyrrolizin-7a(5H)-yl)methoxy)quinazolin-4-yl)pyrrolidin-3-yl)-N-cyclopropyl-1H-1,2,4-triazole-1-carboxamide] | ≤ 500 nM | 
CC(C)[C@H]1N(C(=O)n2cnc(C(F)F)n2)C[C@]12CCCN(c1nc(OC[C@@]34CCCN3C[C@H](F)C4)nc3c(F)c(-c4ccc(F)c5sc(N)c(C#N)c45)c(Cl)cc13)C2 [Compound 165, 2-amino-4-(6-chloro-4-((1R,4R)-2-(3-(difluoromethyl)-1H-1,2,4-triazole-1-carbonyl)-1-isopropyl-2,6-diazaspiro[3.5]nonan-6-yl)-8-fluoro-2-(((2R,7aS)-2-fluorotetrahydro-1H-pyrrolizin-7a(5H)-yl)methoxy)quinazolin-7-yl)-7-fluorobenzo[b]thiophene-3-carbonitrile] | ≤ 500 nM | 
CN(C[C@@H]1CN(C(=O)n2cnc(C#N)n2)[C@@H]1C1(C)CC1)c1nc(OC[C@@]23CCCN2C[C@H](F)C3)nc2c(F)c(-c3ccc(F)c4sc(N)c(C#N)c34)c(Cl)cc12 [Compound 237, 1-((2S,3R)-3-(((7-(2-amino-3-cyano-7-fluorobenzo[b]thiophen-4-yl)-6-chloro-8-fluoro-2-(((2R,7aS)-2-fluorotetrahydro-1H-pyrrolizin-7a(5H)-yl)methoxy)quinazolin-4-yl)(methyl)amino)methyl)-2-(1-methylcyclopropyl)azetidine-1-carbonyl)-1H-1,2,4-triazole-3-carbonitrile] | ≤ 500 nM | 
CC1([C@H]2N(C(=O)n3cnc(Cl)n3)C[C@]23CCCN(c2nc(OC[C@@]45CCCN4C[C@H](F)C5)nc4c(F)c(-c5ccc(F)c6sc(N)c(C#N)c56)c(Cl)cc24)C3)CC1 [Compound 179, 2-amino-4-(6-chloro-4-((1R,4R)-2-(3-chloro-1H-1,2,4-triazole-1-carbonyl)-1-(1-methylcyclopropyl)-2,6-diazaspiro[3.5]nonan-6-yl)-8-fluoro-2-(((2R,7aS)-2-fluorotetrahydro-1H-pyrrolizin-7a(5H)-yl)methoxy)quinazolin-7-yl)-7-fluorobenzo[b]thiophene-3-carbonitrile] | ≤ 500 nM | 
CC(C)[C@H]1N(C(=O)n2cnc(O)n2)C[C@]12CCCCN(c1nc(OC[C@@]34CCCN3C[C@H](F)C4)nc3c(F)c(-c4ccc(F)c5sc(N)c(C#N)c45)c(Cl)cc13)C2 [Compound 224, 2-amino-4-(6-chloro-8-fluoro-2-(((2R,7aS)-2-fluorotetrahydro-1H-pyrrolizin-7a(5H)-yl)methoxy)-4-((1R,4R)-2-(3-hydroxy-1H-1,2,4-triazole-1-carbonyl)-1-isopropyl-2,6-diazaspiro[3.6]decan-6-yl)quinazolin-7-yl)-7-fluorobenzo[b]thiophene-3-carbonitrile] | ≤ 500 nM | 
CC(C)N(C(=O)n1cncn1)[C@H]1CCN(c2nc(OC[C@@]34CCCN3C[C@H](F)C4)nc3c(F)c(-c4ccc(F)c5sc(N)c(C#N)c45)c(Cl)cc23)C1 [Compound 180, N-((3S)-1-(7-(2-amino-3-cyano-7-fluorobenzo[b]thiophen-4-yl)-6-chloro-8-fluoro-2-(((2R,7aS)-2-fluorotetrahydro-1H-pyrrolizin-7a(5H)-yl)methoxy)quinazolin-4-yl)pyrrolidin-3-yl)-N-isopropyl-1H-1,2,4-triazole-1-carboxamide] | ≤ 500 nM | 
CC(C)[C@H]1N(C(=O)n2cnc(Cl)n2)C[C@@]12CN(c1nc(OC[C@@]34CCCN3C[C@H](F)C4)nc3c(F)c(-c4ccc(F)c5sc(N)c(C#N)c45)c(Cl)cc13)CCO2 [Compound 134, 2-amino-4-(6-chloro-4-((1R,4S)-2-(3-chloro-1H-1,2,4-triazole-1-carbonyl)-1-isopropyl-5-oxa-2,8-diazaspiro[3.5]nonan-8-yl)-8-fluoro-2-(((2R,7aS)-2-fluorotetrahydro-1H-pyrrolizin-7a(5H)-yl)methoxy)quinazolin-7-yl)-7-fluorobenzo[b]thiophene-3-carbonitrile] | ≤ 500 nM | 
N#Cc1c(N)sc2c(F)ccc(-c3c(Cl)cc4c(N5CCOC6(C5)CN(C(=O)n5cncn5)C6C5CC5)nc(OC[C@@]56CCCN5C[C@H](F)C6)nc4c3F)c12 (stereo partly drawn) [Compound 156, 2-amino-4-(6-chloro-4-(1-cyclopropyl-2-(1H-1,2,4-triazole-1-carbonyl)-5-oxa-2,8-diazaspiro[3.5]nonan-8-yl)-8-fluoro-2-(((2R,7aS)-2-fluorotetrahydro-1H-pyrrolizin-7a(5H)-yl)methoxy)quinazolin-7-yl)-7-fluorobenzo[b]thiophene-3-carbonitrile] |  | 500 to 5000 nM
CC(C)C1N(C(=O)n2cnc(Cl)n2)CC12CC(CC#N)CN(c1nc(OC[C@@]34CCCN3C[C@H](F)C4)nc3c(F)c(-c4ccc(F)c5sc(N)c(C#N)c45)c(Cl)cc13)C2 (single isomer, unassigned) [Compound 117] | ≤ 500 nM | 
CC1([C@H]2N(C(=O)n3cnc(C(F)F)n3)C[C@]23CCCN(c2nc(OC[C@@]45CCCN4C[C@H](F)C5)nc4c(F)c(-c5ccc(F)c6sc(N)c(C#N)c56)c(Cl)cc24)C3)CC1 [Compound 234, 2-amino-4-(6-chloro-4-((1R,4R)-2-(3-(difluoromethyl)-1H-1,2,4-triazole-1-carbonyl)-1-(1-methylcyclopropyl)-2,6-diazaspiro[3.5]nonan-6-yl)-8-fluoro-2-(((2R,7aS)-2-fluorotetrahydro-1H-pyrrolizin-7a(5H)-yl)methoxy)quinazolin-7-yl)-7-fluorobenzo[b]thiophene-3-carbonitrile] | ≤ 500 nM | 
N#Cc1c(N)sc2c(F)ccc(-c3c(Cl)cc4c(N5CCC(N(C(=O)n6cnc(Cl)n6)C6CC6)C5)nc(OC[C@@]56CCCN5C[C@H](F)C6)nc4c3F)c12 (stereo partly drawn) [Compound 143, N-(1-(7-(2-amino-3-cyano-7-fluorobenzo[b]thiophen-4-yl)-6-chloro-8-fluoro-2-(((2R,7aS)-2-fluorotetrahydro-1H-pyrrolizin-7a(5H)-yl)methoxy)quinazolin-4-yl)pyrrolidin-3-yl)-3-chloro-N-cyclopropyl-1H-1,2,4-triazole-1-carboxamide] | ≤ 500 nM | 
CC(C)[C@@H]1[C@H](CN(C)c2nc(OC[C@@]34CCCN3C[C@H](F)C4)nc3c(F)c(-c4ccc(F)c5sc(N)c(C#N)c45)c(Cl)cc23)CN1C(=O)n1cnc(F)n1 [Compound 144, 2-amino-4-(6-chloro-8-fluoro-4-((((2R,3R)-1-(3-fluoro-1H-1,2,4-triazole-1-carbonyl)-2-isopropylazetidin-3-yl)methyl)(methyl)amino)-2-(((2R,7aS)-2-fluorotetrahydro-1H-pyrrolizin-7a(5H)-yl)methoxy)quinazolin-7-yl)-7-fluorobenzo[b]thiophene-3-carbonitrile] | ≤ 500 nM | 
CC1CN(c2nc(OC[C@@]34CCCN3C[C@H](F)C4)nc3c(F)c(-c4ccc(F)c5sc(N)c(C#N)c45)c(Cl)cc23)CC1N(C)C(=O)n1cncn1 (stereo partly drawn) [Compound 206, N-(1-(7-(2-amino-3-cyano-7-fluorobenzo[b]thiophen-4-yl)-6-chloro-8-fluoro-2-(((2R,7aS)-2-fluorotetrahydro-1H-pyrrolizin-7a(5H)-yl)methoxy)quinazolin-4-yl)-4-methylpyrrolidin-3-yl)-N-methyl-1H-1,2,4 triazole-1-carboxamide] | ≤ 500 nM | 
N#Cc1c(N)sc2c(F)ccc(-c3c(Cl)cc4c(N5CCC6(C5)CN(C(=O)n5cncn5)C6C5CC5)nc(OC[C@@]56CCCN5C[C@H](F)C6)nc4c3F)c12 (single isomer, unassigned) [Compound 203] | ≤ 500 nM | 
